Data as given in patent US10575525B2, “Benzoxazole compound or salt thereof, agricultural and horticultural insecticide comprising the compound, and method for using the insecticide” (Nihon Nohyaku Co., Ltd., priority 2016, dated 2020).

Legend:
[1] = tested on: Laodelphax striatella; test: Insecticidal test on Laodelphax striatella (rice seedling dip); format: in vivo; settings: Laodelphax striatellus, 192 h, rice seedlings dipped 30 seconds, 3rd-instar larvae, 8 days after inoculation, read-out: corrected mortality rate, activity level
Source text: Insecticidal test on Laodelphax striatella
The benzoxazole compounds represented by the general formula (1) of the present invention or salts thereof were separately dispersed in water and diluted to 500 ppm. Rice plant seedlings (variety: Nihonbare) were dipped in the agrochemical dispersions for 30 seconds. After air-dried, each seedling was put into a separate glass test tube and inoculated with ten 3rd-instar larvae of Laodelphax striatella, and then the glass test tubes were capped with cotton plugs. At 8 days after the inoculation, the numbers of surviving larvae and dead larvae were counted, the corrected mortality rate was calculated according to the formula shown below and evaluated according to the criteria shown below. Corrected mortality rate (%)=100×(Survival rate in a non-treatment plot−Survival rate in a treatment plot)/Survival rate in a non-treatment plot [Math. 2] Criteria A: the corrected mortality rate is 100%. B: the corrected mortality rate is 90 to 99%. C: the corrected mortality rate is 80 to 89%. D: the corrected mortality rate is 50 to 79%.

[2] = tested on: Plutella xylostella; test: Insecticidal test on Plutella xylostella (dip of Chinese cabbage seedlings with laid eggs); format: in vivo; settings: 144 h, seedlings with eggs dipped about 30 seconds, 25° C., 6 days after dip treatment, criteria of Test Example 2, read-out: insecticidal effect (corrected mortality rate), activity level
Source text: Insecticidal test on Plutella xylostella
Adults of Plutella xylostella were released onto Chinese cabbage seedlings and allowed to lay eggs thereon. At 2 days after the release of the adults, the Chinese cabbage seedlings with laid eggs were dipped for about 30 seconds in agrochemical aqueous dispersions diluted to 500 ppm, each of which contained a different kind of benzoxazole compound represented by the general formula (1) of the present invention as an active ingredient. After air-dried, the seedlings were kept in a thermostatic chamber at 25° C. At 6 days after the dip treatment, the number of hatched larvae per plot was counted, the mortality rate was calculated according to the formula shown below, and the insecticidal effect was evaluated according to the criteria of Test Example 2. This test was conducted in triplicate using 10 adults of Plutella xylostella per plot. Corrected mortality rate (%)=100×(Number of hatched larvae in a non-treatment plot−Number of hatched larvae in a treatment plot)/Number of hatched larvae in a non-treatment plot [Math. 3]

Compound: CCS(=O)(=O)c1cc(C2CC2)cnc1-c1nc2cc(OC(F)(F)F)ccc2o1 [Compound 1-3, 2-(5-Cyclopropyl-3-ethylsulfonylpyridin-2-yl)-5-(trifluoromethoxy)benzo[d]oxazole]
- mortality at 500 ppm [1]: 100%
- mortality at 500 ppm [2]: 100%

Compound: CCS(=O)(=O)c1cc(C2CC2)cnc1-c1nc2cc([S+]([O-])C(F)(F)F)ccc2o1 (stereo not shown) [Compound 1-12, 2-(5-Cyclopropyl-3-ethylsulfonylpyridin-2-yl)-5-(trifluoromethylsulfinyl)benzo[d]oxazole]
- mortality at 500 ppm [1]: 100%
- mortality at 500 ppm [2]: 100%
